Results: PubChem BioAssay (NCI)
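Where inhibition never reached the appropriate level, the endpoint shown equals the highest concentration tested. Otherwise, values were interpolated linearly from a five-concentration, 48-hour dose response in 96-well plates. At the TGI there is no net growth.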

Columns and labels:
Assay in all cases: NCI-60 cell line screen, 48 h
ACHN renal = test system: ACHN renal
NCI-H226 lung = test system: NCI-H226 lung
MDA-N = test system: MDA-N
UACC-62 melanoma = test system: UACC-62 melanoma
COLO 205 colon = test system: COLO 205 colon
K-562 leukemia = test system: K-562 leukemia
TK-10 renal = test system: TK-10 renal
UACC-257 melanoma = test system: UACC-257 melanoma
DU-145 prostate = test system: DU-145 prostate
BT-549 breast = test system: BT-549 breast
SK-MEL-28 melanoma = test system: SK-MEL-28 melanoma
SF-268 CNS = test system: SF-268 CNS
HOP-62 NSCLC = test system: HOP-62 NSCLC
SN12C renal = test system: SN12C renal
SF-295 CNS = test system: SF-295 CNS
PC-3 prostate = test system: PC-3 prostate
T-47D breast = test system: T-47D breast
NCI-H460 lung = test system: NCI-H460 lung
M14 melanoma = test system: M14 melanoma
MDA-MB-435 = test system: MDA-MB-435
A498 renal = test system: A498 renal
MCF7 breast = test system: MCF7 breast
OVCAR-4 ovarian = test system: OVCAR-4 ovarian
CAKI-1 renal = test system: CAKI-1 renal
SNB-19 CNS = test system: SNB-19 CNS
HT29 colon = test system: HT29 colon
IGROV1 ovarian = test system: IGROV1 ovarian
U251 CNS = test system: U251 CNS
HOP-92 NSCLC = test system: HOP-92 NSCLC
HS 578T breast = test system: HS 578T breast
LOX IMVI melanoma = test system: LOX IMVI melanoma
MALME-3M melanoma = test system: MALME-3M melanoma
SNB-75 CNS = test system: SNB-75 CNS
HCT-116 colon = test system: HCT-116 colon
OVCAR-5 ovarian = test system: OVCAR-5 ovarian
OVCAR-3 ovarian = test system: OVCAR-3 ovarian
OVCAR-8 ovarian = test system: OVCAR-8 ovarian
HCC-2998 colon = test system: HCC-2998 colon
EKVX NSCLC = test system: EKVX NSCLC
HCT-15 colon = test system: HCT-15 colon
KM12 colon = test system: KM12 colon
RPMI-8226 leukemia = test system: RPMI-8226 leukemia
MOLT-4 leukemia = test system: MOLT-4 leukemia
MDA-MB-231 breast = test system: MDA-MB-231 breast
SK-MEL-5 melanoma = test system: SK-MEL-5 melanoma
UO-31 renal = test system: UO-31 renal
SW-620 colon = test system: SW-620 colon
SK-OV-3 ovarian = test system: SK-OV-3 ovarian
SR leukemia = test system: SR leukemia
A549 NSCLC = test system: A549 NSCLC
NCI-H522 lung = test system: NCI-H522 lung
SK-MEL-2 melanoma = test system: SK-MEL-2 melanoma
786-0 renal = test system: 786-0 renal
SF-539 CNS = test system: SF-539 CNS
NCI-H23 lung = test system: NCI-H23 lung
NCI/ADR-RES ovarian = test system: NCI/ADR-RES ovarian
CCRF-CEM leukemia = test system: CCRF-CEM leukemia
HL-60(TB) leukemia = test system: HL-60(TB) leukemia

CCOC(=O)C1=C(C#N)S(=O)(=O)c2c(oc(C)c2C)N1
TGI (ACHN renal): > 100 µM
TGI (NCI-H226 lung): > 100 µM
TGI (MDA-N): > 100 µM
TGI (UACC-62 melanoma): > 100 µM
TGI (COLO 205 colon): > 100 µM
TGI (K-562 leukemia): > 100 µM
TGI (TK-10 renal): > 100 µM
TGI (UACC-257 melanoma): > 100 µM
TGI (DU-145 prostate): > 100 µM
TGI (BT-549 breast): > 100 µM
TGI (SK-MEL-28 melanoma): > 100 µM
TGI (SF-268 CNS): > 100 µM
TGI (HOP-62 NSCLC): > 100 µM
TGI (SN12C renal): > 100 µM
TGI (SF-295 CNS): > 100 µM
TGI (PC-3 prostate): > 100 µM
TGI (T-47D breast): > 100 µM
TGI (NCI-H460 lung): > 100 µM
TGI (M14 melanoma): > 100 µM
TGI (MDA-MB-435): > 100 µM
TGI (A498 renal): > 100 µM
TGI (MCF7 breast): > 100 µM
TGI (OVCAR-4 ovarian): > 100 µM
TGI (CAKI-1 renal): > 100 µM
TGI (SNB-19 CNS): > 100 µM
TGI (HT29 colon): > 100 µM
TGI (IGROV1 ovarian): > 100 µM
TGI (U251 CNS): > 100 µM
TGI (HOP-92 NSCLC): > 100 µM
TGI (HS 578T breast): > 100 µM
TGI (LOX IMVI melanoma): > 100 µM
TGI (MALME-3M melanoma): > 100 µM
TGI (SNB-75 CNS): > 100 µM
TGI (HCT-116 colon): > 100 µM
TGI (OVCAR-5 ovarian): > 100 µM
TGI (OVCAR-3 ovarian): > 100 µM
TGI (OVCAR-8 ovarian): > 100 µM
TGI (HCC-2998 colon): > 100 µM
TGI (EKVX NSCLC): > 100 µM
TGI (HCT-15 colon): > 100 µM
TGI (KM12 colon): > 100 µM
TGI (RPMI-8226 leukemia): > 100 µM
TGI (MOLT-4 leukemia): > 100 µM
TGI (MDA-MB-231 breast): > 100 µM
TGI (SK-MEL-5 melanoma): > 100 µM
TGI (UO-31 renal): > 100 µM
TGI (SW-620 colon): > 100 µM
TGI (SK-OV-3 ovarian): > 100 µM
TGI (SR leukemia): > 100 µM
TGI (A549 NSCLC): > 100 µM
TGI (NCI-H522 lung): > 100 µM
TGI (SK-MEL-2 melanoma): > 100 µM
TGI (786-0 renal): > 100 µM
TGI (SF-539 CNS): > 100 µM
TGI (NCI-H23 lung): > 100 µM
TGI (NCI/ADR-RES ovarian): > 100 µM

O=[N+]([O-])c1ccc(NC(=S)N=Nc2c(O)[nH]c3ccccc23)cc1
TGI (ACHN renal): 21.1 µM
TGI (MDA-N): 30.2 µM
TGI (UACC-62 melanoma): 24 µM
TGI (CCRF-CEM leukemia): > 100 µM
TGI (COLO 205 colon): 26.3 µM
TGI (K-562 leukemia): > 100 µM
TGI (UACC-257 melanoma): 47.3 µM
TGI (DU-145 prostate): 29.5 µM
TGI (BT-549 breast): 55.4 µM
TGI (SK-MEL-28 melanoma): 36.9 µM
TGI (SF-268 CNS): 37.9 µM
TGI (HOP-62 NSCLC): 18.1 µM
TGI (HL-60(TB) leukemia): > 100 µM
TGI (SN12C renal): 63 µM
TGI (SF-295 CNS): 21.5 µM
TGI (PC-3 prostate): 16.6 µM
TGI (T-47D breast): 37.7 µM
TGI (NCI-H460 lung): 29.2 µM
TGI (M14 melanoma): 25.7 µM
TGI (MDA-MB-435): 53.7 µM
TGI (MCF7 breast): 38.1 µM
TGI (OVCAR-4 ovarian): 79.6 µM
TGI (CAKI-1 renal): 21.7 µM
TGI (SNB-19 CNS): 36.4 µM
TGI (HT29 colon): > 100 µM
TGI (IGROV1 ovarian): 29.3 µM
TGI (U251 CNS): 38.7 µM
TGI (HOP-92 NSCLC): 30.7 µM
TGI (HS 578T breast): 59.8 µM
TGI (LOX IMVI melanoma): 36.3 µM
TGI (MALME-3M melanoma): 21.9 µM
TGI (SNB-75 CNS): 31.4 µM
TGI (HCT-116 colon): 18.6 µM
TGI (OVCAR-5 ovarian): 43.3 µM
TGI (OVCAR-3 ovarian): 28.1 µM
TGI (OVCAR-8 ovarian): 3.16 µM
TGI (HCC-2998 colon): 26.7 µM
TGI (EKVX NSCLC): 43 µM
TGI (HCT-15 colon): 16.7 µM
TGI (KM12 colon): 78.2 µM
TGI (RPMI-8226 leukemia): > 100 µM
TGI (MOLT-4 leukemia): 19.8 µM
TGI (MDA-MB-231 breast): 13.9 µM
TGI (SK-MEL-5 melanoma): 24 µM
TGI (UO-31 renal): 19.3 µM
TGI (SW-620 colon): 34.2 µM
TGI (SK-OV-3 ovarian): 14.8 µM
TGI (SR leukemia): > 100 µM
TGI (A549 NSCLC): 21.5 µM
TGI (NCI-H522 lung): 34.9 µM
TGI (SK-MEL-2 melanoma): 23.3 µM
TGI (786-0 renal): 18.4 µM
TGI (SF-539 CNS): 31.1 µM
TGI (NCI-H23 lung): 54.5 µM
TGI (NCI/ADR-RES ovarian): 23.7 µM

Cc1cccc(/C=N/NC(=S)Nc2ccc(Cl)cc2)n1
TGI (ACHN renal): 11.3 µM
TGI (MDA-N): 25.5 µM
TGI (UACC-62 melanoma): 3.68 µM
TGI (CCRF-CEM leukemia): 42.8 µM
TGI (COLO 205 colon): 17.6 µM
TGI (K-562 leukemia): > 100 µM
TGI (TK-10 renal): 71.7 µM
TGI (UACC-257 melanoma): 18.9 µM
TGI (DU-145 prostate): > 100 µM
TGI (BT-549 breast): 30.4 µM
TGI (SK-MEL-28 melanoma): 20 µM
TGI (SF-268 CNS): 17.4 µM
TGI (HOP-62 NSCLC): 11.9 µM
TGI (SN12C renal): 34 µM
TGI (SF-295 CNS): 14.4 µM
TGI (PC-3 prostate): 26.2 µM
TGI (T-47D breast): > 100 µM
TGI (NCI-H460 lung): 15.9 µM
TGI (M14 melanoma): 7.69 µM
TGI (MDA-MB-435): 17.5 µM
TGI (MCF7 breast): 25.9 µM
TGI (OVCAR-4 ovarian): > 100 µM
TGI (CAKI-1 renal): 13.3 µM
TGI (SNB-19 CNS): 22.2 µM
TGI (HT29 colon): 54.5 µM
TGI (IGROV1 ovarian): 12.7 µM
TGI (U251 CNS): 13.5 µM
TGI (HOP-92 NSCLC): 20 µM
TGI (HS 578T breast): 17.5 µM
TGI (LOX IMVI melanoma): 10.7 µM
TGI (MALME-3M melanoma): 20.8 µM
TGI (SNB-75 CNS): 16.1 µM
TGI (HCT-116 colon): 12.9 µM
TGI (OVCAR-5 ovarian): 73.3 µM
TGI (OVCAR-3 ovarian): 61 µM
TGI (OVCAR-8 ovarian): 33.7 µM
TGI (HCC-2998 colon): 40.3 µM
TGI (EKVX NSCLC): 23.1 µM
TGI (HCT-15 colon): 23.1 µM
TGI (KM12 colon): 40.8 µM
TGI (RPMI-8226 leukemia): > 100 µM
TGI (MOLT-4 leukemia): 10.9 µM
TGI (MDA-MB-231 breast): 15.8 µM
TGI (SK-MEL-5 melanoma): 8.97 µM
TGI (UO-31 renal): 12.5 µM
TGI (SW-620 colon): 20 µM
TGI (SK-OV-3 ovarian): 10.8 µM
TGI (SR leukemia): > 100 µM
TGI (A549 NSCLC): 13.6 µM
TGI (NCI-H522 lung): 4.93 µM
TGI (SK-MEL-2 melanoma): 25.6 µM
TGI (786-0 renal): 12.1 µM
TGI (SF-539 CNS): 12.7 µM
TGI (NCI-H23 lung): 34.9 µM
TGI (NCI/ADR-RES ovarian): 26 µM
